The results in this text go back to US20080032998A1, “Pyrazolopyrimidines, a process for their preparation and their use as medicine” (MERZ PHARMA GMBH & CO. KGAA, priority 2006, published 2008).

pIC50: −log10 of the molar value.

One assay deals with T1, mGluR5 receptors (Rattus norvegicus, UniProt P31424).
T1 construct: endogenous in cells; host or cells: primary astrocytes from neocortex of Sprague-Dawley rat pups
Kind of assay: Cytosolic calcium studies with astrocytes (astrocyte culture test, FLIPR). Format: cell-based. Conditions: rat primary astrocytes, L-quisqualate 100 nM; read-out: mGluR5_FLIPR_r_rpA IC50. The protocol: Primary astrocyte cultures are prepared from cortices of newborn rats as described by Booher and Sensenbrenner (1972, Neurobiology 2(3):97-105). Briefly, Sprague-Dawley rat pups (2-4 d old) are decapitated and neocortices are dissected, disintegrated with a nylon filter (pore size 80 μm) and carefully triturated. […]
The increase of cytosolic calcium after stimulation with the mGluR5 agonist L-quisqualate is measured using a fluorometric imaging plate reader (FLIPR) and the Ca-Kit (both Molecular Devices). […] Subsequently, plates are transferred to FLIPR to detect calcium increase with the addition of L-quisqualate (100 nM) measured as relative fluorescence units (RFU). […]
(§1) The fluorescence signal increase after addition of agonist reflects the increase of cytosolic calcium. […] The mean of replicated temporal data (n=3-5) is calculated and used for graphical representation. For the evaluation of the pharmacology, the calcium changes in response to different concentrations of agonist or antagonist are determined using a maximum minus minimum (MaxMin) calculation.
All responses (RFU-values) are determined as percentage of control (=maximum response). EC50 and IC50 are calculated according the logistic equation using GraFit 5.0 (Erithacus Software, GB) or Prism 4.0 (GraphPad Software, USA).

The target in assay [1] is T2, transmembrane allosteric modulatory sites of mGluR5 receptors in cortical membranes (Rattus norvegicus, UniProt P31424).
T2 construct: from tissue; host or cells: rat brain cortex membranes (male Sprague-Dawley)
Kind of assay: [3H]-MPEP binding assay in rat cortical membranes. Conditions: [3H]-MPEP 5 nM, read-out: mGluR5_MPEP rCTX_IC50. The protocol:
Male Sprague-Dawley rats (200-250 g) are decapitated and their brains are removed rapidly. The cortex is dissected and homogenized in 20 volumes of ice-cold 0.32 M sucrose using a glass-Teflon homogenizer. The homogenate is centrifuged at 1000×g for 10 minutes. The pellet is discarded and the supernatant centrifuged at 20,000×g for 20 minutes. The resulting pellet is re-suspended in 20 volumes of distilled water and centrifuged for 20 minutes at 8000×g. Then the supernatant and the buffy coat are centrifuged at 48,000×g for 20 minutes in the presence of 50 mM Tris-HCl, pH 8.0. The pellet is then re-suspended and centrifuged two to three more times at 48,000×g for 20 minutes in the presence of 50 mM Tris-HCl, pH 8.0. All centrifugation steps are carried out at 4° C. After resuspension in 5 volumes of 50 mM Tris-HCl, pH 8.0 the membrane suspension is frozen rapidly at −80° C. […]
Alternatively, assays are performed with [^3H]-MMPEP (2-(3-methoxyphenylethynyl)-6-methylpyridine hydrochloride) as radioligand. […] Following separation and rinse, the filters are placed into scintillation liquid (5 ml Ultima Gold, Perkin Elmer, Germany) and radioactivity retained on the filters is determined with a conventional liquid scintillation counter (Canberra Packard, Germany).

Assay [2] deals with T3, metabotropic glutamate receptor (mGluR5) (Homo sapiens, UniProt P41594). Kind of assay: Cytosolic calcium studies with stably transfected cells (FLIPR). Conditions: CHO-K1 cells with human mGluR5, agonist L-quisqualic acid; read-out: mGluR5_FLIPR_h_CHONAM_IC50. Set-up: expressed in transfected cells; host or cells: CHO-K1 cells (IPTG-inducible expression). Format: cell-based. The protocol:
Cytosolic Calcium Studies with Stably Transfected Cells
Chinese hamster ovary cells (CHO-K1 cells), stably transfected for inducible expression of a human metabotropic glutamate receptor mGluR5, are seeded into black clear bottom 96 well plates at a density of 35.000 cells per well. The standard growth medium used (Dulbecco's modified Eagle Medium, DMEM plus L-proline) contains the appropriate inducer isopropyl-β-D-thiogalactopyranosid (IPTG) to achieve optimal receptor expression. One day after seeding the growth medium is exchanged for reconstituted Ca-Kit (Molecular Devices, USA) and incubated for one hour. […] Agonistic compounds to the receptor elicit increases in cytosolic calcium which can be measured as increases in fluorescence signals by use of a fluorescence imaging plate reader (Molecular Devices).
as §1
All responses (RFU-values) are determined as percentage of control (=maximum response). […]

The target of assay [3] is T3, metabotropic glutamate receptor (mGluR5). Kind of assay: Activity as mGluR5 modulator (prior-art compounds, method not given).

T3 sequence (P41594 21-1212): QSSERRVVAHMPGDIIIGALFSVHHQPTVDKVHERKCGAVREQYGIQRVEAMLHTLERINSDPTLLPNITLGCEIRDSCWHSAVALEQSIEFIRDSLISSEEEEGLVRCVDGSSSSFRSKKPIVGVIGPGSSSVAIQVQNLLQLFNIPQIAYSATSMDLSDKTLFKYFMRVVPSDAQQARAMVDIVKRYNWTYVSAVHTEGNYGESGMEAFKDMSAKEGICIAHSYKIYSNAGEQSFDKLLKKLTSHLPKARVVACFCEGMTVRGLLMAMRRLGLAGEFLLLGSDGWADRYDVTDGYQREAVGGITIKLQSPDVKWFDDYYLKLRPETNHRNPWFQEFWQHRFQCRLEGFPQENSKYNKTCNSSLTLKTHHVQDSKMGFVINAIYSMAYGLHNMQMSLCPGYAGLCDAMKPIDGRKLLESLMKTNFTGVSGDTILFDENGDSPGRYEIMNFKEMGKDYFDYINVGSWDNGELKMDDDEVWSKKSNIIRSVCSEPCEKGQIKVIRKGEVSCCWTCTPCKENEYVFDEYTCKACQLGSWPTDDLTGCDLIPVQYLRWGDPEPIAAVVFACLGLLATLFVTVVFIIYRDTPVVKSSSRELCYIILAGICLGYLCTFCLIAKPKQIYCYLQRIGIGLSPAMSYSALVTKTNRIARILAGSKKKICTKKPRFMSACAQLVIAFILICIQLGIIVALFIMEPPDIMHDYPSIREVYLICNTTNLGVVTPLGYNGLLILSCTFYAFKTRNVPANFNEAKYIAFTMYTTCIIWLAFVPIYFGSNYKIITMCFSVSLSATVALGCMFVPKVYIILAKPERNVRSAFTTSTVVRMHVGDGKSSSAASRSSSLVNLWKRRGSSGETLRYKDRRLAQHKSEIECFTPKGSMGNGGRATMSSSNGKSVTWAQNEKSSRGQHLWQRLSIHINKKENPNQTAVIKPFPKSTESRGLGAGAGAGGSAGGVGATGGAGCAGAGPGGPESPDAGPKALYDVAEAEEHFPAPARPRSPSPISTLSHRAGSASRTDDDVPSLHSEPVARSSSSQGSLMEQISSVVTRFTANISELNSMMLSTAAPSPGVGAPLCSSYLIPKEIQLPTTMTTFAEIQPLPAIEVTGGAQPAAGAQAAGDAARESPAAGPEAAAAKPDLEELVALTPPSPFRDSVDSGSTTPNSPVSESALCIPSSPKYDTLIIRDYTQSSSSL
T1 sequence (P31424 21-1203): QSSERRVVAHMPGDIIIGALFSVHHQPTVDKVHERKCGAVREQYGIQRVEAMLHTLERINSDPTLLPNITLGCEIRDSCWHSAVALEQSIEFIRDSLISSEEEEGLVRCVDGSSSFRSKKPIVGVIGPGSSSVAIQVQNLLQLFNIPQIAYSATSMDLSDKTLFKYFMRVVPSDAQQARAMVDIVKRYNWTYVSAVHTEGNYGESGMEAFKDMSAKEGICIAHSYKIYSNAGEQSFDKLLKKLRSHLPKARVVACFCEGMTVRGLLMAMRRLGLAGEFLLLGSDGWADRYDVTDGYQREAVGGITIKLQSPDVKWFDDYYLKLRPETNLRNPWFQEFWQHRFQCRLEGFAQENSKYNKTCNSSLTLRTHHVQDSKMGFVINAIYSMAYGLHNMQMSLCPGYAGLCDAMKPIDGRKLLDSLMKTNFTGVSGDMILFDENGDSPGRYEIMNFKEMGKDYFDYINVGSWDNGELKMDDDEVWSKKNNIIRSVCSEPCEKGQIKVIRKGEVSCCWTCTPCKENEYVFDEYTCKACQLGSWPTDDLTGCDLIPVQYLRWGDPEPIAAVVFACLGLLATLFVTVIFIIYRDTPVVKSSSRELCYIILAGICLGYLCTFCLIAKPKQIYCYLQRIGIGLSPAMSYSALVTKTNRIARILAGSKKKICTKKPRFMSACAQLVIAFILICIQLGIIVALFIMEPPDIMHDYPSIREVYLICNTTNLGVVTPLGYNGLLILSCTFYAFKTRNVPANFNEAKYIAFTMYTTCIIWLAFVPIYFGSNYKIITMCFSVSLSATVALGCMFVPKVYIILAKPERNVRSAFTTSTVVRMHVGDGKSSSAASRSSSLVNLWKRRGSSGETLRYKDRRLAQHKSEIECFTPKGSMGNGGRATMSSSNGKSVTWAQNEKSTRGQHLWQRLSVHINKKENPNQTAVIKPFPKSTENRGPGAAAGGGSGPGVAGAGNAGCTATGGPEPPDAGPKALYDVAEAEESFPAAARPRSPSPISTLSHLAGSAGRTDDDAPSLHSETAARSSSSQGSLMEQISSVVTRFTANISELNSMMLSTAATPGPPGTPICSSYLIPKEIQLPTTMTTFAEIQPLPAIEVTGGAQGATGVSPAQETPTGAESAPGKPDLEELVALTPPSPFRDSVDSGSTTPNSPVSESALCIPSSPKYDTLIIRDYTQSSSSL
T2 sequence (P31424 21-1203): as above

Take `O=C(c1cc2ncc(Br)cn2n1)N1CC=C(c2ccccc2)CC1` [Example 1, (6-Bromo-pyrazolo[1,5-a]pyrimidin-2-yl)-(4-phenyl-3,6-dihydro-2H-pyridin-1-yl)-methanone]: the pIC50 on mGluR5 receptors was 7.10; in assay [1] it was 6.60; in assay [2] it was 6.31.

On to `O=C(c1cc2ncc(Br)cn2n1)N1CCc2ccccc2C1` [M, (6-Bromo-pyrazolo[1,5-a]pyrimidin-2-yl)-(1,2,3,4-tetrahydro-isoquinolin-2-yl)-methanon], for which, in assay [3], the “activity as metabotropic glutamate receptor (mGluR5) modulator” value is listed as “only a limited activity” and the selectivity entry was “not selective”.
